Experimental data taken from patent publication US20120231140A1, “Organic Compounds” (GIVAUDAN SA, priority 2009, published 2012).

Assay: Sensory analysis of the umami enhancing thresholds in Model Broth by a panel of trained experts
Format: in vivo
Details: Model Broth (MSG, maltodextrin, sodium chloride, yeast extract in water); half-tongue test vs blank broth; geometric mean over panelists; read-out: Umami enhancement threshold concentration in "Model Broth" as calculated for the panel
Procedure: Sensory analysis of the umami enhancing thresholds of the compounds isolated from the ACN fraction of heated avocado pulp as described in example 1.
Water for sensory evaluation was commercially available table water (“Evian®”, Danone, Wiesbaden, Germany).
“Model Broth” contained monosodium L-glutamate monohydrate (MSG) (1.9 g), maltodextrin (6.375 g), sodium chloride (2.9 g) and yeast extract (2.1 g), in 1000 mL of water.
25 mg of each of the compounds listed hereinabove were separately dissolved in 0.2 mL ethanol, then 20.0 mL of model broth was added to each sample. Each sample was then diluted with model broth in 1:1(v/v) steps, until sets of nine solutions with dilution factors of 1, 2, 4, 8, 16, 32, 64, 128, and […] were obtained for each compound.
The samples were evaluated by a panel of trained experts.
The following sensorial evaluation procedure was followed for each set of samples containing a different compound of formula (I).
In a way that avoided any mixing, 1 mL of one of the sample solutions was applied to the left part of each panelists tongue, and 1 mL of Model Broth as a blank value/neutral reference was applied to the right part of the tongue. The panelists were asked to compare the taste on both halves of their tongues. After 5 to 30 seconds the panelists were then asked to rub their tongues against the roof of their mouths. Panelists were then asked if they could distinguish the sample from the blank (Model Broth).
After each sample, the oral cavity was rinsed with water and a break of 5 to 10 minutes was observed until the stimulus completely disappeared.
Multiple sample solutions were tested in this way, one after the other in ascending order of concentration, to determine the weakest concentration at which the compounds of formula (I) enhanced the umami taste of the model broth.
The calculation of the umami enhancement threshold was then performed as described in the literature (ASU: L 00.90-9, 1999), via the geometric mean.
By “umami enhancement threshold” is meant, the mean concentration at which a compound enhances the umami taste of a model broth.
For each panelist, the following formula was used to determine the mean umami enhancement threshold:
E=√{square root over (ce×ce−1)}
wherein ce is the concentration (in ppm) of the weakest concentration identified as having an umami enhancing effect, Ce−1 is the concentration (in ppm) of the anteceding sample solution and E is the mean umami enhancement threshold.
To calculate the mean umami enhancement threshold for the panel, the following formula was used: […]
Wherein n is the number of panelists, Ei is the product of the umami enhancement thresholds calculated for each panelist as specified above.
The panel calculated mean umami enhancement threshold for each compound is indicated in table1 below.
Compound `CCCCCC=CCC=CCCCCCCCC(=O)CC(O)COC(C)=O` (centres unmarked) [1-acetoxy-2-hydroxy-4-oxo-n-heneicosa-12,15-dien] has a minimal effective concentration of 3.2 µg/mL.
In the case of `CCCCCC=CCC=CCCCCCC=CC(=O)CC(O)COC(C)=O` (centres unmarked) [1-acetoxy-2-hydroxy-4-oxo-n-heneicosa-5,12,15-trien], the minimal effective concentration is reported as 0.7 µg/mL.
In the case of `C=CCCCCCCCCCCCC(O)CC(O)COC(C)=O` (centres unmarked) [1-acetoxy-2,4-dihydroxy-n-heptadeca-16-en], the minimal effective concentration is reported as 2.8 µg/mL.
Compound `CCCCCC=CCC=CCCCCCCCC(O)CC(O)COC(C)=O` (centres unmarked) [1-acetoxy-2,4-dihydroxy-n-heneicosa-12,15-dien] has a minimal effective concentration of 0.7 µg/mL.
`CCCCCC=CCCCCCCCC(=O)CC(O)COC(C)=O` (centres unmarked) [1-acetoxy-2-hydroxy-4-keto-n-octadeca-12-en] showed a minimal effective concentration of 1.8 µg/mL.
With `C=CCCCCCCCCCCCC(=O)CC(O)COC(C)=O` (centres unmarked) [1-acetoxy-2-hydroxy-4-keto-n-heptadeca-16-en] the minimal effective concentration was 3.5 µg/mL.
With `CCCCCCCCCCCCCC(=O)CC(O)COC(C)=O` (centres unmarked) [1-acetoxy-2-hydroxy-4-keto-n-heptadecane] the minimal effective concentration was 5.6 µg/mL.
In the case of `C#CCCCCCCCCCCCC(O)CC(O)COC(C)=O` (centres unmarked) [1-acetoxy-2,4-dihydroxy-n-heptadeca-16-yne], the minimal effective concentration is reported as 1.5 µg/mL.
